According to US10266566B2, “Protease-resistant peptide ligands” (North Carolina State University, priority 2013, dated 2019):
“Also recorded” adds a separate entry of the source. Where a SMILES comes first, the peptide text is derived from it. Where no end group is shown, it is not given here. [ ]: non-standard residue; d: D form. The star is where a group is joined. Toyopearl = Toyopearl AF-Amino-650M resin to which the C-terminus is tethered; Trp(1-Me) = Cn1cc(C[C@H](N)C(=O)O)c2ccccc21; Phe(4-Me) = Cc1ccc(C[C@H](N)C(=O)O)cc1; Lys(Me2) = CN(C)CCCC[C@H](N)C(=O)O; Cit = NC(=O)NCCC[C@H](N)C(=O)O; For = O=C*

Key:
[1] = target: T1, α-chymotrypsin (Bos taurus, UniProt P00766); experiment: Resistance of peptide ligands to proteolytic digestion: IgG yield after contact with α-chymotrypsin; assay type: in vitro ADME; conditions: for IgG Yield 2nd run (after α-chymotrypsin): after contact with α-chymotrypsin in Tris buffer pH 8.5 for 10 minutes; for resistance to α-chymotrypsin (in words): loss of IgG binding capacity after enzyme treatment, FIG. 2
T1 construct: purchased Sigma Aldrich
Procedure: (§1) All resins (35 mg each) were packed in a 30 mm×2.1 mm I.D. Microbore column (0.1 mL) (Alltech-Applied Science, Somerset, Pa., USA) and swollen with 20% v/v methanol. After equilibration with PBS, pH 7.4, three IgG binding tests were performed using a 10 mg/mL solution of hIgG in PBS. Between each binding test, the resin was contacted with a 0.15 mg/mL solution of either trypsin or α-chymotrypsin in Tris HCl buffer, pH 8.5. The chromatographic protocol employed for all five injections was as follows. One hundred microliters of feed sample was loaded onto the column at a flow rate of 0.05 mL/min (87 cm/h). After a washing step with 2 mL of equilibration buffer at a flow rate of 0.2 mL/min (348 cm/h), elution was performed with 4 mL of 0.2M acetate buffer pH 4.0 at a flow rate of 0.4 mL/min (696 cm/h). Finally, the adsorbent was regenerated with 4 mL of 0.85% phosphoric acid. The adsorbents HWRGWV-, HYFKFD-, and HFRRHL-Toyopearl (SEQ ID NOS: 6, 16, 17) resins were used as controls. The effluent was monitored by absorbance at 280 nm.
(§2) Based on the results reported in Table 2, the original sequences HWRGWV, HFRRHL, and HYFKFD (SEQ ID NOS: 1-3), and their variants HWMetCitGWMetV, HFMetCitCitHL, and HYMetFMetK(Met)2FMetD (SEQ ID NOS: 4, 5, 7) were tested for their resistance to enzymatic digestion. The sequences HWMetCitGWMetV (SEQ ID NO: 8), HFMetCitCitHL (SEQ ID NO: 5) were selected as the best variants of their respective original peptides, while HYMetFMetKMet2FMetD (SEQ ID NO: 7) was used as a negative control. […] Each adsorbent was subjected to five consecutive chromatographic runs. First, a solution of pure human polyclonal IgG at 10 mg/mL in PBS was injected to determine IgG yield for each adsorbent prior to contact with any enzyme. All four peptide variants gave a yield above 91% for this initial run. The resin was then contacted with a solution of α-chymotrypsin in Tris buffer pH 8.5 for 10 minutes. The amount of enzyme loaded onto the column was in a mass ratio of 1:100 peptide:enzyme, as done by Verdoliva et al.. After rinsing the resin, a second injection of IgG was then performed to estimate the loss of binding capacity due to the digestion of the peptide ligand by α-chymotrypsin. The resin was then contacted with the second enzyme solution, i.e., trypsin in Tris buffer pH 8.5, at the same peptide:enzyme ratio. A third IgG injection was finally performed to estimate the residual binding capacity of each resin after the second enzyme treatment.

[2] = system: trypsin; experiment: Resistance of peptide ligands to proteolytic digestion: IgG yield after contact with trypsin; assay type: in vitro ADME; conditions: for IgG Yield 3rd run (after trypsin): after α-chymotrypsin and then trypsin in Tris buffer pH 8.5; for resistance to trypsin (in words): loss of IgG binding capacity after enzyme treatment, FIG. 2
Procedure: as §1, §2

[3] = system: IgG; experiment: Purification of IgG (IVIG) from Cohn fraction II+III of human plasma, yield and purity; assay type: binding
Procedure: Cohn fraction II+III was dissolved in PBS, pH 7.4 to obtain an approximate IgG concentration of 5 mg/mL and filtered sequentially using a 0.44 μm and a 0.22 μm filter from Pall Corporation (Port Washington, N.Y., USA). […] After equilibration with PBS buffer containing 0.25M NaCl, 100 μL of feed sample was loaded onto the column at a flow rate of 0.05 mL/min (87 cm/h). After washing the column with 2 mL of equilibration buffer at a flow rate of 0.2 mL/min (348 cm/h), elution was performed with 4 mL of 0.2M acetate buffer pH 5.0 at a flow rate of 0.4 mL/min (696 cm/h). Cleaning and regeneration were performed using 4 mL of 0.85% phosphoric acid followed by a wash with 4 mL of 2M urea in acetate buffer (pH 4.0). Toyopearl AF-rProtein A-650F resin was used as a positive control. As per manufacturer's instructions, the chromatographic protocol comprised binding with PBS, pH 7.4 (at a flow rate of 0.05 mL/min) and elution with 0.1M Glycine buffer pH 2.5 (at a flow rate of 0.4 mL/min). The effluent was monitored by absorbance at 280 nm. Fractions were collected and used for analysis of IgG purity and yield as described below.
The effect of conductivity of the binding buffer was studied at 0, 0.135 and 0.25 M NaCl added to PBS. After equilibration with binding buffer, 100 μL of feed was loaded onto the column at a flow rate of 0.05 mL/min (87 cm/h). Chromatographic protocol and fraction collection were done as above described.
The amount of IgG in the collected fractions was quantified by HPLC using 1 mL HiTrap Protein G column. The yield of IgG was calculated as the ratio of IgG eluted to total IgG loaded. The purity of IgG in the eluted fractions was determined by sodium dodecyl sulfate polyacrylamide gel electrophoresis (SDS-PAGE) under reducing conditions using NuPAGE® Novex 4-12% Bis-Tris gels in a Xcell SuperLock™ Mini-Cell system (LifeSciences, Carlsbad, Calif., USA). Sample preparation was done by adding 5 μL of NuPAGE® LDS buffer and 2 μL of NuPAGE® reducing agent to 13 μL of sample and boiling the resulting mixture for 10 min. Gels were Coomassie-stained by using SimpleBlue™ SafeStain. The IgG purity was determined by densitometric analysis of Coomassie-stained gels by means of ImageJ 1.32j software (National Institutes of Health, Bethesda, Md., USA).
The purity of the product was calculated as the fraction of the total area equivalent to the IgG bands at 25 and 50 KDa.
The original peptide ligands were employed as positive controls. The crude stock of Cohn II+III paste was diluted in PBS to prepare the feed sample and solid particles were removed by filtration prior to injection into the column. The chromatographic protocol adopted in this work was derived from previous optimizations and comprised the use of 0.25M NaCl in PBS as binding buffer and 0.2M acetate buffer pH 5.0 for elution [24]. Fractions were collected and analyzed by Protein G chromatography and SDS-PAGE (FIG. 3) to determine IgG yield and purity respectively.
To verify this hypothesis, binding studies were repeated using the above listed sequences and three binding buffers, comprising 0M, 0.13M, and 0.25M NaCl in PBS.

[4] = system: human polyclonal IgG; experiment: Chromatographic IgG binding test of peptide-Toyopearl adsorbents with pure human polyclonal IgG; conditions: peptide on Toyopearl resin, approx. 0.12 meq/g, 0.1 mL column; ratio of IgG eluted to total IgG loaded
Procedure: All resins (35 mg each) were packed in a 30 mm×2.1 mm I.D. Microbore column (0.1 mL) (Alltech-Applied Science, Somerset, Pa., USA) and swollen with 20% v/v methanol. After equilibration with PBS, pH 7.4, three IgG binding tests were performed using a 10 mg/mL solution of hIgG in PBS. Between each binding test, the resin was contacted with a 0.15 mg/mL solution of either trypsin or α-chymotrypsin in Tris HCl buffer, pH 8.5. The chromatographic protocol employed for all five injections was as follows. One hundred microliters of feed sample was loaded onto the column at a flow rate of 0.05 mL/min (87 cm/h). […] The effluent was monitored by absorbance at 280 nm.
The amount of IgG in the collected fractions was quantified by HPLC using 1 mL HiTrap Protein G column. The yield of IgG was calculated as the ratio of IgG eluted to total IgG loaded. The purity of IgG in the eluted fractions was determined by sodium dodecyl sulfate polyacrylamide gel electrophoresis (SDS-PAGE) under reducing conditions using NuPAGE® Novex 4-12% Bis-Tris gels in a Xcell SuperLock™ Mini-Cell system (LifeSciences, Carlsbad, Calif., USA). […] The IgG purity was determined by densitometric analysis of Coomassie-stained gels by means of ImageJ 1.32j software (National Institutes of Health, Bethesda, Md., USA). […]

[5] = 0.25M NaCl in PBS binding buffer
[6] = 0.13M NaCl in PBS binding buffer

Q: `Cc1ccc(C[C@H](NC(=O)[C@@H](N)Cc2c[nH]cn2)C(=O)N[C@@H](CCCNC(N)=O)C(=O)N[C@@H](CCCNC(N)=O)C(=O)N[C@@H](Cc2c[nH]cn2)C(=O)N[C@@H](CC(C)C)C(=O)O)cc1` [HFMetCitCitHL] (H-H[Phe(4-Me)][Cit][Cit]HL-OH; N-terminus and C-terminus assumed) was tested. Which “IgG Yield 2nd run (after α-chymotrypsin)” value [1] did it give?
A: 92%

Q: And the “IgG Yield 3rd run (after trypsin)” value [2]?
A: 91%

Q: Which “IgG Yield 2nd run (after α-chymotrypsin)” value [1] does the source give for `CC(C)[C@H](NC(=O)[C@H](Cc1c[nH]c2ccccc12)NC(=O)CNC(=O)[C@H](CCCNC(N)=O)NC(=O)[C@H](Cc1c[nH]c2ccccc12)NC(=O)[C@@H](N)Cc1c[nH]cn1)C(=O)O` [HWCitGWV] (H-HW[Cit]GWV-OH; N-terminus and C-terminus assumed) here?
A: 73%

Q: And the “IgG Yield 3rd run (after trypsin)” value [2]?
A: 71%

Q: And the “resistance to trypsin (in words)” value [2]?
A: resistance towards one enzyme only

Q: What does the source list for `CC(C)[C@H](NC(=O)[C@H](Cc1cn(C=O)c2ccccc12)NC(=O)CNC(=O)[C@H](CCCNC(N)=O)NC(=O)[C@H](Cc1cn(C=O)c2ccccc12)NC(=O)[C@@H](N)Cc1c[nH]cn1)C(=O)O` [HWForCitGWForV] (H-HW(For)[Cit]GW(For)V-OH; N-terminus and C-terminus assumed)?
A: IgG Yield 2nd run (after α-chymotrypsin) [1]: 69%; IgG Yield 3rd run (after trypsin) [2]: 69%

Q: `CC(C)[C@H](NC(=O)[C@H](Cc1cn(C)c2ccccc12)NC(=O)CNC(=O)[C@H](CCCNC(N)=O)NC(=O)[C@H](Cc1cn(C)c2ccccc12)NC(=O)[C@@H](N)Cc1c[nH]cn1)C(=O)O` [HWMetCitGWMetV] (H-H[Trp(1-Me)][Cit]G[Trp(1-Me)]V-OH; N-terminus and C-terminus assumed) was tested. Which “IgG Yield 2nd run (after α-chymotrypsin)” value [1] did it give?
A: 91%

Q: What about the “resistance to α-chymotrypsin (in words)” value [1] of the same compound?
A: completely unaffected by either

Q: And the “IgG Yield 3rd run (after trypsin)” value [2]?
A: 90%

Q: What about the “resistance to trypsin (in words)” value [2] of the same compound?
A: completely unaffected by either

Q: Which results are given for `CC(C)[C@H](NC(=O)[C@H](Cc1cn(C)c2ccccc12)NC(=O)CNC(=O)[C@H](CCCNC(=N)N)NC(=O)[C@H](Cc1cn(C)c2ccccc12)NC(=O)[C@@H](N)Cc1c[nH]cn1)C(=O)O` [HWMetRGWMetV] (H-H[Trp(1-Me)]RG[Trp(1-Me)]V-OH; N-terminus and C-terminus assumed)?
A: IgG Yield 2nd run (after α-chymotrypsin) [1]: 91%; resistance to α-chymotrypsin (in words) [1]: resistance towards one enzyme only; IgG Yield 3rd run (after trypsin) [2]: 82%

Q: Which results are given for `COc1ccc(C[C@H](NC(=O)[C@@H](N)Cc2c[nH]cn2)C(=O)N[C@@H](Cc2ccc(C)cc2)C(=O)N[C@@H](CCCCN(C)C)C(=O)N[C@@H](Cc2ccc(C)cc2)C(=O)N[C@@H](CC(=O)O)C(=O)O)cc1` [HYMetFMetKMet2FMetD] (H-HY(Me)[Phe(4-Me)][Lys(Me2)][Phe(4-Me)]D-OH; N-terminus and C-terminus assumed)?
A: IgG Yield 2nd run (after α-chymotrypsin) [1]: 49%; resistance to α-chymotrypsin (in words) [1]: high resistance to proteolysis; IgG Yield 3rd run (after trypsin) [2]: 53%; resistance to trypsin (in words) [2]: high resistance to proteolysis

Q: For “Ac-HWMetCitGWMetV: acetylated version of the variant HWMetCitGWMetV (Ac-H[Trp(1-Me)][Cit]G[Trp(1-Me)]V; not fully specified (C-terminus))”, which “IgG Purity” value [3, 5] is on record?
A: 92%

Q: What about the “IgG yield over the binding buffers” value ([3]; over 0M, 0.13M, 0.25M NaCl binding buffers) of the same compound?
A: above 90%

Q: How did the “IgG Purity” value ([3]; 0M NaCl in PBS binding buffer) turn out when “Ac-HWRGWV: acetylated version of the original HWRGWV (not fully specified (C-terminus); printed as Ac-HWRGWV; also: TOYOPEARL at residue 6)” was run?
A: 80%

Q: And the “IgG Yield” value ([3]; 0M NaCl in PBS binding buffer)?
A: 91%

Q: And the “IgG Purity” value [3, 6]?
A: 80%

Q: What about the “IgG Yield” value [3, 6] of the same compound?
A: 84%

Q: And the “IgG Purity” value [3, 5]?
A: 84%

Q: And the “IgG Yield” value [3, 5]?
A: 83%

Q: With HFRRHL [HFRRHL, reference compound] as the compound, how does the “IgG Yield 2nd run (after α-chymotrypsin)” value [1] read?
A: 78%

Q: What about the “IgG Yield 3rd run (after trypsin)” value [2] of the same compound?
A: 54%

Q: What about the “resistance to trypsin (in words)” value [2] of the same compound?
A: good substrate for trypsin

Q: Which IgG Yield [4] does the source give for “HFcarbCitCitHL: variant of HFRRHL designed using carbamoyl-phenylalanine and citrulline (HF[Cit][Cit]HL-Toyopearl; not fully specified (residue 2); printed as HFcarbCitCitHL)” here?
A: 53%

Q: With “HWMetCitDWMetV: variant created by replacing glycine with aspartic acid” as the compound, how does the IgG Yield [4] read?
A: 47%

Q: Which results are given for HWRGWV [HWRGWV, reference compound]?
A: IgG Yield 2nd run (after α-chymotrypsin) [1]: 72%; resistance to α-chymotrypsin (in words) [1]: degraded by both trypsin and α-chymotrypsin; IgG Yield 3rd run (after trypsin) [2]: 36%; resistance to trypsin (in words) [2]: degraded by both trypsin and α-chymotrypsin; also recorded: ideal substrate for trypsin

Q: With HYFKFD [HYFKFD, reference compound] as the compound, how does the “IgG Yield 2nd run (after α-chymotrypsin)” value [1] read?
A: 76%

Q: And the “IgG Yield 3rd run (after trypsin)” value [2]?
A: 71%

Q: And the “resistance to trypsin (in words)” value [2]?
A: almost immune to the attack of trypsin
